In patent US20230265116A1, “DEGRADATION OF (EGFR) BY CONJUGATION OF EGFR INHIBITORS WITH E3 LIGASE LIGAND AND METHODS OF USE” (BEIGENE, LTD., priority 2020, published 2023):
Like-named read-outs stand apart in the source and are kept apart here.

Key:
Type in all cases: cell-based
[1] = target: T1, EGFR L858R/T790M/C797S (BaF3-LTC cells) (Homo sapiens, UniProt P00533, C797S/L858R/T790M); test: EGFR degradation HTRF assay, BaF3-LTC cells
T1 construct: expressed in transfected cells; host or cells: BaF3
T1 sequence (P00533 25-1210 T790M/C797S/L858R): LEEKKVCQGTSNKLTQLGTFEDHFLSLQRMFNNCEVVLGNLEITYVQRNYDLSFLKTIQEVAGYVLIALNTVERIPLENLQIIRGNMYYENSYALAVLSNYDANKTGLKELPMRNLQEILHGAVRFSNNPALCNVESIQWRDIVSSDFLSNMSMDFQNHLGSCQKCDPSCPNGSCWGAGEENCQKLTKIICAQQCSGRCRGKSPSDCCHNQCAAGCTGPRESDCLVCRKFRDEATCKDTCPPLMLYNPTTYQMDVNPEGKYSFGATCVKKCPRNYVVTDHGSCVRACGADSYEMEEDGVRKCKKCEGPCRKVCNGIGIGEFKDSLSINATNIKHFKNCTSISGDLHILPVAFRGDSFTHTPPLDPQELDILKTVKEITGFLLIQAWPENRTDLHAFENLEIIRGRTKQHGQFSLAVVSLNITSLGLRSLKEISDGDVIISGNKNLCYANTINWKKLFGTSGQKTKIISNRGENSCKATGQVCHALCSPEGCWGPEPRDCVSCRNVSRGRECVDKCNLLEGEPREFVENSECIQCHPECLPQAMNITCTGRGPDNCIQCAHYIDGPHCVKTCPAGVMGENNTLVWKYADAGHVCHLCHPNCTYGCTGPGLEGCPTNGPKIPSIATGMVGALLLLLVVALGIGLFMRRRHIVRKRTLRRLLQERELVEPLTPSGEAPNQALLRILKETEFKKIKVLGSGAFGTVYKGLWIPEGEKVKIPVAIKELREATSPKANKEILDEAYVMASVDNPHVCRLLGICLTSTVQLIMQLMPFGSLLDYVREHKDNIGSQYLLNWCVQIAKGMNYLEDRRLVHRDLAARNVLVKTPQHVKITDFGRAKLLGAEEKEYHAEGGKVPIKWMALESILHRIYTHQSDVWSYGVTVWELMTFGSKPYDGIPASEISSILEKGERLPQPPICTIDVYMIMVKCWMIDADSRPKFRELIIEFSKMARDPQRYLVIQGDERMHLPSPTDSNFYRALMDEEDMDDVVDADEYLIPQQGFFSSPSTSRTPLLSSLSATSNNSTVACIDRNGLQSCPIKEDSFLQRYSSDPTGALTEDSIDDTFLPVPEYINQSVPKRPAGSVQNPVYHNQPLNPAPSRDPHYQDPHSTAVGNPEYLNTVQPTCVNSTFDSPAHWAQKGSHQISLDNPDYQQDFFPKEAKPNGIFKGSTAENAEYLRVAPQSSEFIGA
Method in brief: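 EGFR remaining after a 16 h, 37 °C exposure (8 doses, 5-fold steps from 10 uM final, 0.2% DMSO) was quantified by HTRF antibodies in cell lysate. Percent inhibition relative to DMSO control was fitted by four-parameter logistic to give DC50; Dmax denotes maximal degradation.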

[2] = test system: EGFR Del19/C797S (H1975-clone #23); test: EGFR degradation HTRF assay, H1975-clone #23 DC cells; settings: for H1975 #23 DC Dmax (%): maximum percentage of degradation
Experimental: H1975-clone #28(Del19/T790M/C797S) and H1975-clone #23(Del19/C797S). EGFR-Del19/T790M/C797S and EGFR-Del19/C797S were stably expressed in H1975 cell lines by lentivirus-mediated over-expression, respectively. The EGFR over-expressed cells then underwent gene knockout, in which the EGFR targeting sgRNA was designed to only target the endogenous EGFR copies and preserve the exogenous EGFR copies. Followed by the gene knockout, the edited H1975 cells were seeded in 96 well plates at the concentration of 1 cell/well, cultured for about 2 weeks to allow single clones formation. The formed clones were screened by DNA sequencing and whole exon sequencing analysis for the desired edition. H1975-clone #28 and H1975-clone #23 were finally confirmed as homozygous Del19/T790M/C797S EGFR and Del19/C797S EGFR clones, respectively.
BaF3 WT(wild type), BaF3-LTC(L858R/T790M/C797S) and BaF3-DTC(Del19/T790M/C797S) cells are treated with compounds diluted in 0.2% DMSO cell culture medium and incubate for 16h, 37° C., 5% CO2, H1975-#36, H1975-#28, H1975-#23 and HCC827 cells are treated with compounds diluted in 0.2% DMSO cell culture medium on day 2, incubate for 16h, 37° C., 5% CO2.the final concentriation of compounds in all assay is start with 10 uM, 5-fold dilution, total 8 doses were included.
After 16h treatment, add HTRF lysis buffer to each well; seal the plate and incubate 1 hour at room temperature on a plate shaker; Once the cells are lysed, 16 μL of cell lysate are transferred to a PE 384-well HTRF detection plate; 4 μL of pre-mixed HTRF antibodies are added to each well; Cover the plate with a plate sealer, spin 1000 rpm for 1 min, Incubate overnight at room temperature; Read on BMG PheraStar with HTRF protocol (337 nm-665 nm-620 nm).
The inhibition (degradation) percentage of the compound was calculated by the following equation: Inhibition percentage of Compound=100-100×(Signal-low control)/(High control-low control), wherein signal=each test compound group
High control=Cell group with added DMSO and without compound, indicating microplate readings without EGFR degradation;
Dmax is the maximum percentage of inhibition (degradation).
The IC50 (DC50) value of a compound can be obtained by fitting the following equation
Y=Bottom+(TOP−Bottom)/(1+((IC50/X)^hillslope))
Wherein, X and Y are known values, and IC50, Hillslope, Top and Bottom are the parameters obtained by fitting with software. Y is the inhibition percentage (calculated from the equation), X is the concentration of the compound; IC50 is the concentration of the compound when the 50% inhibition is reached. The smaller the IC50 value is, the stronger the inhibitory ability of the compound is. Vice versa, the higher the IC50 value is, the weaker the inhibitory ability of the compound is; Hillslope represents the slope of the fitted curve, generally around 1*; Bottom represents the minimum value of the curve obtained by data fitting, which is generally 0%±20%; Top represents the maximum value of the curve obtained by data fitting, which is generally 100%±20%. The experimental data were fitted by calculating and analyzing with Dotmatics data analysis software.

[3] = test system: EGFR Del19/T790M/C797S (H1975-clone #28); test: EGFR degradation HTRF assay, H1975-clone #28 DTC cells
Method in brief: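 Cells were dosed on day 2 with an 8-point, 5-fold dilution series starting at 10 uM final and incubated 16h at 37° C. After lysis for 1 hour, HTRF antibodies were added overnight at room temperature and the plate was read at 665/620 nm. Degradation was normalised to DMSO wells and fitted for DC50 and Dmax.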

[4] = target: T2, EGFR L858R/C797S (BaF3 LC cells) (Homo sapiens, UniProt P00533, C797S/L858R); test: EGFR degradation HTRF assay, BaF3 LC cells
T2 construct: expressed in transfected cells; host or cells: BaF3
T2 sequence (P00533 25-1210 C797S/L858R): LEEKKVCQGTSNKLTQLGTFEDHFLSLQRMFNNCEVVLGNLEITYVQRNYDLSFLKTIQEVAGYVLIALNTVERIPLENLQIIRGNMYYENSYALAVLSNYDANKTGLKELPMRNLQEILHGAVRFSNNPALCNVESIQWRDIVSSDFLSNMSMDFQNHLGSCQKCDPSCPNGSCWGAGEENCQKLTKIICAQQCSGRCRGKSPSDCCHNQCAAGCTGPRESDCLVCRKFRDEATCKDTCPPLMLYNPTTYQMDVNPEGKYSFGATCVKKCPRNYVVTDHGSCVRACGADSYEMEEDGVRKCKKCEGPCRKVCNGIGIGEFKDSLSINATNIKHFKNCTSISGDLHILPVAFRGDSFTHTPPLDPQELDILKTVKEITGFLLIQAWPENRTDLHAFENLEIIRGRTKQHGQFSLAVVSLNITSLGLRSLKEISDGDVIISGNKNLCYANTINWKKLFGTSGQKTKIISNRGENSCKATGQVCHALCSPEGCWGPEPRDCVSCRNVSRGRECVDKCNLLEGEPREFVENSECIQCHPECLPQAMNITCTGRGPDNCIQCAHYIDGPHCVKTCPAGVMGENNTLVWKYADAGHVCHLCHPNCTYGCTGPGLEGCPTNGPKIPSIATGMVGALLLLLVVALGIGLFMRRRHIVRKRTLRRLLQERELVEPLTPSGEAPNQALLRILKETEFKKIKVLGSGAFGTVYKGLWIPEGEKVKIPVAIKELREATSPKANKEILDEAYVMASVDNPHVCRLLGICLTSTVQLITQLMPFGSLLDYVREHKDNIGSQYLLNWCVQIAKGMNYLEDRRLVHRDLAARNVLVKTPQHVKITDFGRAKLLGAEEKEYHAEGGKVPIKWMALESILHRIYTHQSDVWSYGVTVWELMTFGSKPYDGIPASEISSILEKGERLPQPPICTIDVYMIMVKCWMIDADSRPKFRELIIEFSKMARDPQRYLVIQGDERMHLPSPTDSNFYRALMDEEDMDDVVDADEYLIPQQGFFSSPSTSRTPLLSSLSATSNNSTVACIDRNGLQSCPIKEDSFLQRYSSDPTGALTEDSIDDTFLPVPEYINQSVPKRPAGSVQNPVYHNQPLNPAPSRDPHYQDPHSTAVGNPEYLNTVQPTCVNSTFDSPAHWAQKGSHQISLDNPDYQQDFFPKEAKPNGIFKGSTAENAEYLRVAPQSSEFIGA

[5] = H1975 # 28 DTC cells; maximum percentage of inhibition (degradation)
[6] = BaF3-LTC cells; EGFR degradation, IC50 (DC50) from curve fit; read-out: DC50(nM) BaF3-LTC
[7] = H1975 #23 DC, 16h treatment, read-out: H1975 #23 DC DC50
[8] = H1975 # 28 DTC cells; EGFR degradation, IC50 (DC50) from curve fit; read-out: DC50(nM) H1975 # 28 DTC
[9] = BaF3 LC, 16h treatment; read-out: BaF3 LC DC50
[10] = BaF3 LC, 16h treatment, maximum percentage of degradation; read-out: BaF3 LC Dmax (%)

SMILES: CCc1ccc2c(P(C)(C)=O)c(Nc3nc(Nc4cc(CC)c(N5CCC(N6CCN(C(=O)C7CN(c8cccc9c8oc(=O)n9C8CCC(=O)NC8=O)C7)CC6)CC5)cc4OC)ncc3Br)ccc2n1 (stereo not shown) [Example 446, 3-(7-(3-(4-(1-(4-((5-bromo-4-((5-(dimethylphosphoryl)-2-ethylquinolin-6-yl)amino)pyrimidin-2-yl)amino)-2-ethyl-5-methoxyphenyl)piperidin-4-yl)piperazine-1-carbonyl)azetidin-1-yl)-2-oxobenzo[d]oxazol-3(2H)-yl)piperidine-2,6-dione]
- DC50 ([1]; read-out: DC50(nM) BaF3-LTC; BaF3-LTC cells; EGFR degradation, IC50 (DC50) from curve fit): 3.89 nM
- Dmax ([1]; read-out: Dmax (%) BaF3-LTC, BaF3-LTC cells; maximum percentage of inhibition (degradation)): 96.4%
- H1975 #23 DC Dmax (%) ([2]; 16h treatment): 59.25%
- DC50 ([2]; read-out: H1975 #23 DC DC50, 16h treatment): 0.616 nM
- Dmax (%) H1975 # 28 DTC [3, 5]: 80.48%
- DC50 ([3]; read-out: DC50(nM) H1975 # 28 DTC; H1975 # 28 DTC cells; EGFR degradation, IC50 (DC50) from curve fit): 0.726 nM
- Dmax ([4]; BaF3, read-out: BaF3 LC Dmax (%)): 81.7%
- DC50 ([4]; read-out: BaF3 LC DC50; BaF3 LC, 16h treatment): 5.87 nM

SMILES: CCOc1cc(N2CCC(N3CCN(CCc4cccc5c4oc(=O)n5C4CCC(=O)NC4=O)CC3)CC2)c(CC)cc1Nc1ncc(Br)c(Nc2ccc3c(=O)n(CC)ncc3c2P(C)(C)=O)n1 (stereo not shown) [Example 455, 3-(7-(2-(4-(1-(4-((5-bromo-4-((5-(dimethylphosphoryl)-2-ethyl-1-oxo-1,2-dihydrophthalazin-6-yl)amino)pyrimidin-2-yl)amino)-5-ethoxy-2-ethylphenyl)piperidin-4-y)piperazin-1-yl)ethyl)-2-oxobenzo[d]oxazol-3(2H)-yl)piperidine-2,6-dione]
- DC50 [1, 6]: 3.83 nM
- Dmax (%) BaF3-LTC ([1]; BaF3-LTC cells; maximum percentage of inhibition (degradation)): 87.13%
- H1975 #23 DC Dmax (%) ([2]; 16h treatment): 77.73%
- DC50 [2, 7]: 2.31 nM
- DC50 [3, 8]: 0.47 nM
- Dmax (%) H1975 # 28 DTC [3, 5]: 79.19%
- BaF3 LC Dmax (%) ([4]; BaF3 LC, 16h treatment, maximum percentage of degradation): 77.76%
- DC50 [4, 9]: 121 nM

SMILES: CCc1ccc2c(P(C)(C)=O)c(Nc3nc(Nc4cc(CC)c(N5CCC(N6CCN(CCc7ccc8c(oc(=O)n8C8CCC(=O)NC8=O)c7F)CC6)CC5)cc4OC)ncc3Br)ccc2n1 (stereo not shown) [Example 458, 3-(6-(2-(4-(1-(4-((5-bromo-4-((5-(dimethylphosphoryl)-2-ethylquinolin-6-yl)amino)pyrimidin-2-yl)amino)-2-ethyl-5-methoxyphenyl)piperidin-4-yl)piperazin-1-yl)ethyl)-7-fluoro-2-oxobenzo[d]oxazol-3(2H)-yl)piperidine-2,6-dione]
- DC50 [1, 6]: 2.09 nM
- Dmax ([1]; BaF3-LTC cells; maximum percentage of inhibition (degradation); read-out: Dmax (%) BaF3-LTC): 88.3%
- H1975 #23 DC Dmax (%) ([2]; 16h treatment): 59.65%
- DC50 [2, 7]: 3.26 nM
- DC50 [3, 8]: 0.505 nM
- Dmax (%) H1975 # 28 DTC [3, 5]: 83.62%
- Dmax [4, 10]: 91.5%
- DC50 [4, 9]: 3.29 nM

SMILES: CCOc1cc(N2CCC(N3CCN(CCc4cc(F)c([C@H]5CCC(=O)NC5=O)c(F)c4)CC3)CC2)c(CC)cc1Nc1ncc(Br)c(Nc2ccc3nc(CC)ncc3c2P(C)(C)=O)n1 [Example 460, (R)-3-(4-(2-(4-(1-(4-((5-bromo-4-((5-(dimethylphosphoryl)-2-ethylquinazolin-6-yl)amino)pyrimidin-2-yl)amino)-5-ethoxy-2-ethylphenyl)piperidin-4-yl)piperazin-1-yl)ethyl)-2,6-difluorophenyl)piperidine-2,6-dione]
- DC50 [1, 6]: 16.4 nM
- H1975 #23 DC Dmax (%) ([2]; 16h treatment): 82.75%
- DC50 [2, 7]: 3.11 nM
- DC50 [3, 8]: 2.43 nM
- Dmax (%) H1975 # 28 DTC [3, 5]: 86%
- DC50 [4, 9]: 37.3 nM

SMILES: CCc1ccc2c(P(C)(C)=O)c(Nc3nc(Nc4cc(CC)c(N5CCC(N6CCN(CCc7cc(F)c([C@H]8CCC(=O)NC8=O)c(F)c7)CC6)CC5)cc4OC)ncc3Br)ccc2n1 [Example 484, (R)-3-(4-(2-(4-(1-(4-((5-bromo-4-((5-(dimethylphosphoryl)-2-ethylquinolin-6-yl)amino)pyrimidin-2-yl)amino)-2-ethyl-5-methoxyphenyl)piperidin-4-yl)piperazin-1-yl)ethyl)-2,6-difluorophenyl)piperidine-2,6-dione]
- H1975 #23 DC Dmax (%) ([2]; 16h treatment): 82.99%
- DC50 [2, 7]: 3.54 nM
- DC50 [3, 8]: 0.781 nM
- Dmax (%) H1975 # 28 DTC [3, 5]: 89.6%
- DC50 [4, 9]: 11.9 nM

SMILES: CCc1ccc2c(P(C)(C)=O)c(Nc3nc(Nc4cc(CC)c(N5CCC(N6CCN(C(=O)[C@@H]7CCN(c8cc(F)c([C@H]9CCC(=O)NC9=O)c(F)c8)C7)CC6)CC5)cc4OC)ncc3Br)ccc2n1 [Example 489, (R)-3-(4-((R)-3-(4-(1-(4-((5-bromo-4-((5-(dimethylphosphoryl)-2-ethylquinolin-6-yl)amino)pyrimidin-2-yl)amino)-2-ethyl-5-methoxyphenyl)piperidin-4-yl)piperazine-1-carbonyl)pyrrolidin-1-yl)-2,6-difluorophenyl)piperidine-2,6-dione]
- H1975 #23 DC Dmax (%) ([2]; 16h treatment): 59.94%
- DC50 [2, 7]: 4.72 nM
- DC50 [3, 8]: 1.37 nM
- Dmax (%) H1975 # 28 DTC [3, 5]: 82.72%
- DC50 [4, 9]: 19.7 nM

SMILES: CCc1ccc2c(P(C)(C)=O)c(Nc3nc(Nc4cc(CC)c(N5CCC(N6CCN(CCc7cccc8c7n(C)c(=O)n8C7CCC(=O)NC7=O)CC6)CC5)cc4OC)ncc3Br)ccc2n1 (stereo not shown) [Example 516, 3-(4-(2-(4-(1-(4-((5-bromo-4-((5-(dimethylphosphoryl)-2-ethylquinolin-6-yl)amino)pyrimidin-2-yl)amino)-2-ethyl-5-methoxyphenyl)piperidin-4-yl)piperazin-1-yl)ethyl)-3-methyl-2-oxo-2,3-dihydro-1H-benzo[d]imidazol-1-yl)piperidine-2,6-dione]
- H1975 #23 DC Dmax (%) ([2]; 16h treatment): 78.66%
- DC50 [2, 7]: 1.11 nM
- Dmax [4, 10]: 94.8%
- DC50 [4, 9]: 1.83 nM

SMILES: CCc1cc(Nc2ncc(Br)c(Nc3ccc4nc(C)ccc4c3P(C)(C)=O)n2)c(OC)cc1N1CCC(N2CCN(C(=O)[C@@H]3CCN(c4cc(F)c([C@H]5CCC(=O)NC5=O)c(F)c4)C3)CC2)CC1 [Example 750, (R)-3-(4-((R)-3-(4-(1-(4-((5-bromo-4-((5-(dimethylphosphoryl)-2-methylquinolin-6-yl)amino)pyrimidin-2-yl)amino)-2-ethyl-5-methoxyphenyl)piperidin-4-yl)piperazine-1-carbonyl)pyrrolidin-1-yl)-2,6-difluorophenyl)piperidine-2,6-dione]
- H1975 #23 DC Dmax (%) ([2]; 16h treatment): 74.02%
- DC50 [2, 7]: 6.52 nM
- DC50 [3, 8]: 1.17 nM
- Dmax (%) H1975 # 28 DTC [3, 5]: 84.8%
- DC50 [4, 9]: 26.1 nM
